In experiment [1] the target is T1, KRAS G12D protein (Homo sapiens, UniProt P01116, G12D).
T1 construct: host or cells: AsPC-1
Description: KRAS degradation activity by Cell ELISA in AsPC-1 (Test Example 1). Type of experiment: cell-based. The conditions noted are these: AsPC-1 cells, cultured overnight with compound, corrected with β-actin, read-out: DC50 (50% degradation concentration of the amounts of KRAS). How it is done:
Test Example 1: Evaluation of KRAS Degradation Activity on Human G12D Mutant KRAS-Positive Pancreatic Cancer Line AsPC-1 (CRL-1682; ATCC)
The KRAS degradation activity of test compounds was evaluated by measuring the expression levels of KRAS G12D protein by Cell ELISA.
AsPC-1 cells were seeded at 20 μL per well on 384-well plates (from Greiner bio-one) to give 2.0×10^4 cells per well. As for the cell culture conditions, RPMI 1640 (from Sigma-Aldrich) medium containing 10% fetal bovine serum (from Cytiva) was used in the presence of 5% CO2 at 37° C.
The next day, the test compounds (10 points having final concentrations in the range of 10 μM to 0.3 nM) and DMSO (from FUJIFILM Wako Pure Chemical Corporation), which was the solvent for the test compounds, as a negative control were diluted 500-fold with a fresh medium and were added at 20 μL per well. The cells were cultured overnight.
The next day, the culture supernatant was removed, and 4% paraformaldehyde phosphate buffer (from FUJIFILM Wako Pure Chemical Corporation) was added at 20 μL per well. The plates were allowed to stand for 30 minutes at room temperature to thus immobilize the cells. Then, the supernatant was removed, and 0.1% Triton X-100 (from Amersham Biosciences)-containing Phosphate buffered saline (PBS; from FUJIFILM Wako Pure Chemical Corporation) was added at 20 μL per well. After allowing to stand for 10 minutes at room temperature, the supernatant was removed. PBS was added at 25 μL per well, and the supernatant was removed to thus wash each well. The washing was performed twice in total. Next, the supernatant was removed, and 0.5% sodium dodecyl sulfate (SDS; from Invitrogen)-containing PBS was added at 20 μL per well. After allowing to stand at room temperature for 10 minutes, the supernatant was removed by a centrifugal operation (using a centrifugal dehydrator machine, the supernatant was removed by the same method hereinafter). PBS was added at 25 μL per well, and the supernatant was removed to thus wash each well. The washing was performed twice in total. The supernatant was removed, and blocking solution (Intercept Blocking Buffer; from Li-COR Biosciences) was added at 20 μL per well. After allowing to stand for 30 minutes at room temperature, the supernatant was removed, and a solution obtained by diluting anti-β-actin antibody (Anti-beta Actin antibody [mAbcam 8226]-Loading Control; from abcam) 1,000-fold with blocking solution and a solution obtained by diluting anti-Ras (G12D Mutant Specific) antibody (Ras (G12D Mutant Specific) (D8H7) Rabbit mAb #14429; from Cell Signaling Technology) and anti-β-actin antibody (from abcam) 1,000-fold with blocking solution were respectively added to positive control wells and the other wells at 20 μL per well as a primary antibody. The plate was allowed to stand overnight at 4° C.
The next day, the supernatant was removed. PBS was added at 25 μL per well, and the supernatant was removed to thus wash each well. The washing was performed twice in total. The supernatant was removed, and a solution obtained by diluting Donkey anti-Mouse IgG H&L (IRDye 680RD) (from Li-COR Biosciences) and Goat anti-Rabbit IgG H&L (IRDye 800CW) (from Li-COR Biosciences) 1,000-fold with blocking solution was added at 20 μL per well as a secondary antibody. After allowing to stand for 1 hour at room temperature, the supernatant was removed. PBS was added at 25 μL per well, and the supernatant was removed to thus wash each well. The washing was performed twice in total. After removing the supernatant, the plate was dried with air at room temperature for 2 hours or more, and the 700 nm and 800 nm fluorescent signals were measured with Aerius (from Li-COR Biosciences). […]
(In general: In an ELISA, binding on a coated surface is turned into a signal by an enzyme label.)

Experiment [2] relates to phosphorylation of threonine 202 (Thr202) and tyrosine 204 (Tyr204) of ERK. Description: ERK phosphorylation inhibitory effect by Cell ELISA in AsPC-1 (Test Example 2). Type of experiment: cell-based, human. The following applies: Homo sapiens, ASPC1, AsPC-1 cells, cultured overnight with compound; 1 μM trametinib taken as 0%. Here is the method:
Test Example 2: Evaluation of ERK Phosphorylation Inhibitory Effect on Human G12D Mutant KRAS-Positive Pancreatic Cancer Line AsPC-1
The ERK phosphorylation inhibitory effect of test compounds was evaluated by measuring phosphorylation of threonine 202 (Thr202) and tyrosine 204 (Tyr204) of ERK located downstream of the KRAS signal by Cell ELISA.
AsPC-1 cells were seeded on 384-well plates at 36 μL/well to give 2.0×10^4 cells per well. As for the cell culture conditions, RPMI 1640 medium containing 10% fetal bovine serum was used in the presence of 5% CO2 at 37° C.
The next day, the test compounds (10 points having final concentrations in the range of 10 μM to 0.3 nM), trametinib (MEK inhibitor) of a final concentration of 1 μM as positive control and DMSO, which was the solvent for the test compounds, as negative control were diluted 100-fold with a fresh medium and were added at 4 μL per well. The cells were cultured overnight. After culturing, 30% glyoxal solution (40% glyoxal [from Nacalai Tesque] was diluted with PBS) was quickly added at 30 μL per well, and the plate was allowed to stand for 60 minutes at room temperature to thus immobilize the cells. Then, the plate was centrifuged to remove the supernatant (using a centrifugal dehydrator machine, the supernatant was removed by the same method hereinafter), and 0.1% Triton X-100-containing PBS was added at 20 μL per well. After allowing to stand for 10 minutes at room temperature, the supernatant was removed, and the same operation was further repeated. Next, 0.5% SDS-containing PBS was added at 20 μL per well, and after allowing to stand at room temperature for 30 minutes, the supernatant was removed. Subsequently, blocking solution (Intercept Blocking Buffer) was added at 20 μL per well, and the plate was allowed to stand for 1 hour at room temperature. The supernatant was removed, and an ERK (Thr202/Tyr204) phosphorylation antibody (Phospho-p44/42 MAPK (Erk 1/2) (Thr202/Tyr204) (D13.14.4E) XP Rabbit mAb; from Cell Signaling Technology) diluted 2,500-fold with blocking solution was added at 15 μL per well as a primary antibody. The plates were allowed to stand at 4° C. overnight.
The next day, the supernatant was removed. 0.05% Tween-20 (from Thermo Fisher Scientific)-containing PBS was added at 50 μL per well, and the supernatant was removed to thus wash each well. The washing was performed three times in total. After washing, Goat anti-Rabbit IgG H&L (IRDye 800CW) diluted 1,000-fold with blocking solution was added at 15 μL per well as a secondary antibody, and the plates were allowed to stand for 1 hour at room temperature. The supernatant was removed, and each well was washed three times with 0.05% Tween-20-containing PBS in the same manner as after the primary antibody reaction. After removing the supernatant, the plates were dried with air at room temperature for 3 hours or more, and the 800-nm fluorescent signals were measured with Aerius.
With the signaling value at the time of addition of DMSO taken as 100% and with the signaling value at the time of addition of 1 μM trametinib taken as 0%, the 50% inhibitory concentration values (IC50) were calculated by Sigmoid-Emax nonlinear regression analysis.

For experiment [3], the system named is human G12D mutant KRAS-positive pancreatic cancer line AsPC-1. Description: Non-anchorage-dependent cell growth inhibition, spheroid 3D cell culture (Test Example 3). Type of experiment: cell-based. The conditions noted are these: Homo sapiens, ASPC1, 144 h, AsPC-1 spheroid 3D culture, 6 days, CellTiter Glo 2.0. How it is done: Test Example 3: Evaluation of Non-Anchorage-Dependent Cell Growth Inhibitory Effect on Human G12D Mutant KRAS-Positive Pancreatic Cancer Line AsPC-1
The non-anchorage-dependent cell growth inhibitory effect of test compounds was evaluated by spheroid 3D cell culture.
AsPC-1 cells were seeded on low-cell-adhesive round bottom 384-well plates (PrimeSurface: from Sumitomo Bakelite) at 36 μL/well to give 5×10^2 cells per well. As for the cell culture conditions, RPMI 1640 medium containing 10% fetal bovine serum was used in the presence of 5% CO2 at 37° C.
The next day, the test compounds (10 or 6 points having final concentrations in the range of 10 μM to 0.3 nM) and DMSO, which was the solvent for the test compounds, as a negative control were diluted 100-fold with a fresh medium and were added at 4 μL per well. After culturing in the presence of 5% CO2 at 37° C. for 6 days, CellTiter Glo 2.0 (from Promega) was added at 20 μL per well. After stirring with a plate mixer (from FINEPCR) at room temperature for 1 hour, the luminescent signals were measured with ARVO X3 (from PerkinElmer).
With the signaling value in treatment with DMSO taken as 100% and with the signaling value in the medium alone without cells taken as 0%, the 50% inhibitory concentration values (IC50) were calculated by Sigmoid-Emax nonlinear regression analysis.

T1 sequence (P01116 1-188 isoform P01116-2 G12D): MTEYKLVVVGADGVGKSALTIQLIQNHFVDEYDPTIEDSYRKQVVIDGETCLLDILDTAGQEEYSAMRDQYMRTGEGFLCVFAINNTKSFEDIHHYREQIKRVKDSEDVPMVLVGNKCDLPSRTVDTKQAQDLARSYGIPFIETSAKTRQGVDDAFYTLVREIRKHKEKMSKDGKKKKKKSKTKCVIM

Broadly, the IC50 is the midpoint of a concentration-inhibition curve. In the case of `Cc1ncsc1-c1ccc([C@H](CO)NC(=O)[C@@H]2C[C@@H](O)CN2C(=O)[C@H](C(C)C)n2cc(-c3ccc(COc4c(-c5c(C)c(F)cc6[nH]ncc56)c(C5CC5)cc5c(O[C@H]6CCNC6)nc(OC6CCOCC6)nc45)cc3)nn2)cc1` (atropisomer, axis not shown) [Example 1], the DC50 in experiment [1] is 13 nM. Moreover, the IC50 amounted to 7 nM in experiment [2] and 9 nM in experiment [3].
In the same order, the values of `Cc1ncsc1-c1ccc([C@H](CO)NC(=O)[C@@H]2C[C@@H](O)CN2C(=O)[C@H](C(C)C)n2cc(-c3ccc(COc4c(-c5c(C)c(F)cc6[nH]ncc56)c(C5CC5)cc5c(N[C@H]6CCNC6)nc(OC6CCOCC6)nc45)cc3)nn2)cc1` (atropisomer, axis not shown) [Example 3] are 47 nM, 16 nM and 7 nM.
`CO[C@@H](C)COc1nc(O[C@H]2CCNC2)c2cc(C3CC3)c(-c3c(C)c(F)cc4[nH]ncc34)c(OCc3ccc(-c4cn([C@H](C(=O)N5C[C@H](O)C[C@H]5C(=O)N[C@@H](CO)c5ccc(-c6scnc6C)cc5)C(C)C)nn4)cc3)c2n1` (atropisomer, axis not shown) [Example 5]: in experiment [1], the DC50 was determined as 9 nM. The IC50 was 12 nM in experiment [2] and 10 nM in experiment [3].
Take `CO[C@@H](C)COc1nc(N[C@H]2CCNC2)c2cc(C3CC3)c(-c3c(C)c(F)cc4[nH]ncc34)c(OCc3ccc(-c4cn([C@H](C(=O)N5C[C@H](O)C[C@H]5C(=O)N[C@@H](CO)c5ccc(-c6scnc6C)cc5)C(C)C)nn4)cc3)c2n1` (atropisomer, axis not shown) [Example 6]: the DC50 in experiment [1] came out at 24 nM. In addition, the IC50 in experiment [2] amounted to 5 nM; in experiment [3] it was 8 nM.
Take `Cc1ncsc1-c1ccc([C@H](CO)NC(=O)[C@@H]2C[C@@H](O)CN2C(=O)[C@H](C(C)C)n2cc(-c3ccc(COc4c(-c5c(C)c(F)cc6[nH]ncc56)c(C5CC5)cc5c(N[C@@H]6CNC[C@@H]6O)nc(OC6CCOCC6)nc45)cc3)nn2)cc1` (atropisomer, axis not shown) [Example 7]: the DC50 in experiment [1] was determined as 40 nM. The figures for the IC50 in experiment [2] and in experiment [3] were 9 nM and 23 nM, respectively.
For the compound `Cc1ncsc1-c1ccc([C@H](CO)NC(=O)[C@@H]2C[C@@H](O)CN2C(=O)[C@H](C(C)C)n2cc(-c3ccc(COc4c(-c5c(C)c(F)cc6[nH]ncc56)c(C5CC5)cc5c(N(C)[C@H]6CCNC6)nc(OC6CCOCC6)nc45)cc3)nn2)cc1` (atropisomer, axis not shown) [Example 8], in experiment [1], the DC50 turned out to be 18 nM. The IC50 was determined as 20 nM in experiment [2] and 16 nM in experiment [3].
`CO[C@@H](C)COc1nc(N(C)[C@H]2CCNC2)c2cc(C3CC3)c(-c3c(C)c(F)cc4[nH]ncc34)c(OCc3ccc(-c4cn([C@H](C(=O)N5C[C@H](O)C[C@H]5C(=O)N[C@@H](CO)c5ccc(F)cc5)C(C)C)nn4)cc3)c2n1` (atropisomer, axis not shown) [Example 12]: the DC50 in experiment [1] amounted to 61 nM. Moreover, the IC50 in experiment [2] came to 42 nM; in experiment [3] it was 41 nM.
`CO[C@@H](C)COc1nc(N(C)[C@H]2CCNC2)c2cc(C3CC3)c(-c3c(C)c(F)cc4[nH]ncc34)c(OCc3ccc(-c4cn([C@H](C(=O)N5C[C@H](O)C[C@H]5C(=O)N[C@@H](CO)c5ccc(-c6ocnc6C)cc5)C(C)C)nn4)cc3)c2n1` (atropisomer, axis not shown) [Example 14]: the DC50 in experiment [1] stood at 20 nM. In addition, the IC50 in experiment [2] and in experiment [3] was 4 nM throughout.
`Cc1ncsc1-c1ccc([C@H](CO)NC(=O)[C@@H]2C[C@@H](O)CN2C(=O)[C@H](C(C)C)n2cc(-c3ccc(COc4c(-c5c(C)c(F)cc6[nH]ncc56)c(C5CC5)nc5c(N6C[C@@H]7C[C@H]6CN7)nc(OC6CCOCC6)nc45)cc3)nn2)cc1` [Example 57, (4R)-1-[(2S)-2-(4-{4-[({6-cyclopropyl-4-[(1S,4S)-2,5-diazabicyclo[2.2.1]heptan-2-yl]-7-(6-fluoro-5-methyl-1H-indazol-4-yl)-2-[(oxan-4-yl)oxy]pyrido[3,2-d]pyrimidin-8-yl}oxy)methyl]phenyl}-1H-1,2,3-triazol-1-yl)-3-methylbutanoyl]-4-hydroxy-N-{(1R)-2-hydroxy-1-[4-(4-methyl-1,3-thiazol-5-yl)phenyl]ethyl}-L-prolinamide]: the IC50 in experiment [3] is 95 nM.

Source of the values: US20250206751A1, “HETEROCYCLIC COMPOUND FOR INDUCING DEGRADATION OF G12D MUTANT KRAS PROTEIN” (Astellas Pharma Inc., priority 2022, published 2025).
